# US20260209135A1, “METHOD OF FORTIFYING FERTILIZER WITH LIPO-CHITOOLIGOSACCHARIDE (LCO)” (priority 2022, published 2026)
# Experiments:
# [1] = test system: White French Beans seedlings; experiment: Seedling bioassay in tubes, WSF (19:19:19) fortified with LCO (Example 3); assay type: in vivo; settings: 10 days
# Experimental: [table] Locally available beans variety were used for the study. Experiment was conducted in 50 ml falcon tube filled with soilrite which acts as growing substrate. Treatment solution as given in the table were prepared in demineralised water and 10 ml of respective solution were applied to each tube after sowing (2.5 cm depth). Fortified, unfortified WSF and LCO were tested at 2 doses along with absolute control. Subsequently, the seedlings were maintained under […] (200 […], 12 hrs light and dark), ambient temperature of 25 degree Celsius. The tubes were incubated for 10 days and irrigated with water as and when required. After 10 days, the experiment was terminated and the plants were phenotyped for recording the traits vz Hypocotyl length, epicotyl length, shoot length and root length.
# Corn [2] = experiment: Corn pot study, LCO and urease inhibitor fortified urea and WSF (Example 6); assay type: in vivo; settings: urea study
# Experimental: NBPT (N-(n-butyl) thiophosphoric triamide) was suspended in propylene glycol (PG) and dimethyl sulphoxide (DMSO) in the ratio of 20:50:30. In the current experiment two different doses of NBPT was fortified to the fertilizers, low dose consisting of 400 ppm and high dose 800 ppm was fortified per Kg of fertilizer.
# The fortifying mixture consists of 0.7 ml of LCO (1.90e-5) and 2 ml of NBPT (400 ppm) was fortified to 1 Kg of fertilizer. Whereas another fortifying mixture consists of 0.7 ml of LCO (1.90e-5) and 4 ml of NBPT (800 ppm) was fortified to 1 Kg of fertilizer. After fortification samples were taken for conducting pot trails.
# A pot study was conducted for evaluating LCO and Urease inhibitor fortified Urea and WSF on an experimental crop. Corn was selected as a subject crop for the pot study. The experiment consists of 13 treatments as listed below. The pot study is done in pots of 2 Kg soil capacity. The experiment duration is 20 days.
# • 1. Untreated Control • 2. WSF • 3. WSF+LCO • 4. WSF+LCO+UI (Low-400 ppm) • 5. […]
# From the onset of the experiment plant height and chlorophyll was measured at every 10th, 15th, and 20th day after sowing. Plant height and dry biomass of leaves and root were measured manually using scales, whereas chlorophyll was measured using chlorophyll meter. Leaf area was calculated based on the dry weight method, by developing a dry-weight weight versus leaf area curve for corn leaf samples of known area.
# Available nitrogen from the soil was estimated from the soil samples using wet aggregate analysis method of estimation. […] The available nitrogen is expressed as kg/ha.
# Total nitrogen as percent was determined from the dried plant samples using Kjeldahl method of estimation. The total nitrogen in plant is expressed as percentage. Nitrogen uptake was calculated by multiplying the shoot biomass with the nutrient concentration. Nitrogen use efficiency (NUE) is determined as the percent of the applied nitrogen that was taken up by the plants.
# From the onset of the experiment plant height and chlorophyll was measured every 5 days interval starting from 10th DAS. […]
# Corn [3] = experiment: Corn microplot trial, granular fertilizer fortified with LCO (Example 5); assay type: in vivo, Maize; settings: LCO at 22.5 ml per bag of GF, over control
# Experimental: Maize seeds were sown directly to microplot on 29 Oct. 2020 and the experiment was completed by third week of January 2021. Experiment was conducted in 3*3 microplots in 7 replications for treatment and 6 replications for control, microplots were distributed in a completed random block experimental design. Treatment was imposed by fertigation at 2 times point with doses divided in to 50% each first at time of transplanting and second one at 40 days after transplanting (Table 11). Plants were grown by following the standard package of practices developed by the university of Agricultural Science Bangalore, for further details information have a look at the crop calendar (Table 11). [table] Treatment was in a complete random block design, with 7 replications per treatment and 6 replication per control. Following parameter/observation WAS recorded: • 1. Plant number per plot • 2. Plant height • 3. Chlorophyll content • 4. Stem girth • 5. Cob number • 6. Cob dry weight • 7. Yield/grain weight per plot or plant Data were analysed with JMP software by comparing means using all pairs Tukey HSD. Error bars shown in graphs are SD. Bar graphs represent the mean. Different alphabet indicates significant difference between the treatment. […] FIG. 8: Plant height were measured at three different time point viz 33, 53 and 138 days after sowing, data represented here are means and error bar represent standard deviation. NS denotes no significant difference between the treatment.
# [4] = test system: Green gram (Vigna radiata); experiment: Green gram seedlings treated with LCO: root length; assay type: in vivo; settings: vs control seedlings without LCO, FIG. 28
# Description: (§1) FIG. 28 represents a graph showing root length measured @ 10 DAS in beans, horse gram and green gram seedlings: untreated control and treated with LCO.
# Cabbage [5] = experiment: Cabbage microplot trial, WSF fortified with LCO (Example 1); assay type: in vivo, Cabbage (Enza zaden variety); settings: average, vs control (only WSF)
# Experimental: Cabbage seedling (Enza zaden variety) were transplanted on 16 Oct. 2020 and the experiment was completed by end of December 2020. Experiment was conducted in 3*3 microplots in 9 replications for treatment and control, microplots were distributed in a completed random block experimental design. Treatment was imposed by fertigation at 3 times point with doses divided in to 22, 39 and 39% respectively (Table 6). Plants were grown by following the standard package of practices developed by the university of Agricultural Science Bangalore. [table] Treatment was in a complete random block design, with 9 replications per treatment. Following parameter/observation was recorded: • 1. Plant number per plot • 2. Fruit weight per plot • 3. Fruit weight per plant • 4. Vertical circumference • 5. Radial circumference Data were analysed with JMP software by comparing means using all pairs Tukey HSD. Error bars shown in graphs are SD. Bar graphs represent the mean. Different alphabet indicates significant difference between the treatment.
# Rice (Oryza sativa) = experiment: Rice seedlings treated with LCO: root length; assay type: in vivo; settings: vs control seedlings without LCO, FIG. 29
# Description: (§2) FIG. 29 represents a graph showing root length measured @ 4 DAS in ragi and rice seedlings: untreated control and treated with LCO.
# [6] = test system: Beans (Phaseolus vulgaris L); experiment: Beans seedlings treated with LCO: root length; assay type: in vivo; settings: vs control seedlings without LCO, FIG. 28
# Description: as §1
# Cabbage [7] = experiment: Cabbage field study, bulk granular fertilizer with LCO (Example 7); assay type: in vivo; settings: bulk fertilizer combined with LCO compared to fertilizer alone
# Experimental: The field experiment was conducted at an agricultural farm in Bangalore in Rabi season of 2020. The study was conducted in randomized complete block design with 7 treatments and 7 replications per treatment with each plot measuring approximately 9 m^2 in area (Table-12 & 13). Cabbage seedlings of a popular variety was used for the trial. Different grades of bulk fertilizers were available in market generally sold in 50 kg packages. The N:P:K-19:19:19 grade bulk fertilizer was used for the current study. Treatments of LCO fortified bulk fertilizer with 3 doses of LCO 11.25 ml, 22.5 ml, and 33.75 ml were formulated per 50 kg bag of fertilizer. The application dose was calculated based on the crop and standard fertilizer recommendation to the select crop. About 50% of calculated quantity of fertilizers were applied to the crop on a per plot basis as basal application at the time of planting and rest of the quantity of each treatment was applied at 40 days after transplanting (DAT). [table] […] The yield per plot was measured by weighing all the heads harvested from each plot. The vertical and horizontal diameter of the head was measured using a measuring tape and the volume of each cabbage head was calculated by the following formula V=4/3·π·(a)^2·b • Where, • V=Volume of the head • a=Horizontal diameter of the head • b=Vertical diameter of the head
# Cabbage [8] = experiment: Cabbage microplot trial, granular fertilizer fortified with LCO (Example 4); assay type: in vivo, Cabbage (Enza zaden variety)
# [9] = test system: finger millet (Eleusine coracana) seedlings; experiment: Ragi seedlings treated with LCO: root hairs and root length; assay type: in vivo
# Description: FIG. 27 represents a graph showing number of root hairs in seedlings of ragi @ 3 DAS: untreated control (UTC) and treated with LCO.
# as §2
# Corn [10] = experiment: Corn field study, bulk granular fertilizer with LCO (Example 8); assay type: in vivo; settings: bulk fertilizer combined with LCO compared to fertilizer alone
# Experimental: The field experiment was conducted at an agricultural farm in Bangalore in Rabi season of 2020. The study was conducted as randomized complete block design with 7 treatments with 9 replications and each plot measured about 9 m^2 in area. Hybrid corn seeds of a popular brand was used for the trial. Different grades of Bulk fertilizers are available in market generally sold in 50 kg packages. The N:P:K-19:19:19 grade bulk fertilizer was used for the current study. Bulk fertilizer was combined with 3 doses of LCO at the rate of 11.25 ml, 22.5 ml, and 33.75 ml per 50 kg bag of fertilizer. The application dose was calculated based on the crop and standard fertilizer recommendation to the select crop. About 50% quantity of the treatments were applied to the crop as basal application at the time of planting and rest of the quantity for each treatment was applied at 40 DAS. [table] [table] The trial was harvested in January 2021, when the cobs were fully matured. The yield parameters such as number of cobs per plot and cob yield per plot were recorded. The number of cobs per plot was normalized based on plant density per plot. The cobs of each plot were threshed separately and grain weight per plot was recorded and interpreted as Kg per plot normalized to number of plants per plot.
# Capsicum = Capsicum net house trial, WSF fortified with LCO (Example 2); assay type: in vivo, Capsicum (Diana variety); settings: fortification of WSF with LCO vs WSF only
# [11] = test system: Horse gram (Macrotyloma uniflorum); experiment: Horse gram seedlings treated with LCO: root length; assay type: in vivo; settings: vs control seedlings without LCO, FIG. 28
# Description: as §1
# [12] = at low pH; cited from earlier work
compound,measurement,setting,value
"CCCCCC/C=C\CCCCCCCCCC(=O)N[C@H]1[C@H](O[C@H]2[C@H](O)[C@@H](NC(C)=O)[C@H](O[C@H]3[C@@H](O)[C@@H](NC(C)=O)[C@H](O[C@H]4[C@H](O)[C@@H](NC(C)=O)[C@H](O[C@H]([C@H](O)[C@H](C=O)NC(C)=O)[C@H](O)CO)O[C@@H]4CO)O[C@@H]3O)O[C@@H]2CO)O[C@H](CO)[C@@H](O)[C@@H]1O [LCO, Lipo-chitooligosaccharide]",Epicotyl length,[1]; concentration 8.75E−12 %,1.75 cm
same,Hypocotyl length,[1]; concentration 8.75E−12 %,9 cm
same,Root length,[1]; concentration 8.75E−12 %,12.12 cm
same,Shoot length (hypocotyl + Epicotyl length),[1]; concentration 8.75E−12 %,10.77 cm
same,Epicotyl length,[1]; concentration 8.75E−14 %,1.87 cm
same,Hypocotyl length,[1]; concentration 8.75E−14 %,8.3 cm
same,Root length,[1]; concentration 8.75E−14 %,13.41 cm
same,Shoot length (hypocotyl + Epicotyl length),[1]; concentration 8.75E−14 %,10.26 cm
same,"total nitrogen (leaf nitrogen content), result in words","Corn [2]; 20 days old corn seedlings, Kjeldahl, FIG. 22",much higher than urea+UI at 400 ppm and equal to urea+UI at 800 ppm
same,"leaf dry weight, result in words","Corn [2]; corn seedlings, 20 DAS, FIG. 18",better than WSF alone
same,"leaf area, result in words","Corn [2]; corn seedlings, 20 DAS, FIG. 20",better than WSF alone
same,increase in cob weight per plot,Corn [3],≤ 10
same,increase in grain weight per plot,Corn [3],≤ 9
same,increase in number of cobs per plant,Corn [3],≤ 18%
same,"root length, result in words",[4],increases the length of roots
same,increase in yield,"Cabbage [5]; cabbage yield (kg/plot), LCO with or without proxel",7%
same,increase in circumference,"Cabbage [5]; cabbage, WSF 19:19:19 with LCO with or without proxel",2%
same,"root length, result in words",Rice (Oryza sativa),increases the length of roots
same,"root length, result in words",[6],increases the length of roots
same,"average volume of cabbage heads, result in words",Cabbage [7],enhanced average volume of cabbage heads
same,"cabbage circumference, result in words",Cabbage [8]; GF fortified with LCO vs control (only GF),marginal increase in circumference of cabbage heads
same,increase in circumference,"Cabbage [8]; cabbage, GF 19:19:19 with LCO with or without proxel, average, vs control (only GF)",0.4%
same,"number of root hairs, result in words","[9]; 3 days after treatment, vs untreated control, FIG. 27",increase root hairs
same,"root length, result in words","[9]; vs control seedlings without LCO, FIG. 29",increases the length of roots
same,"average number of cobs per plot, result in words",Corn [10],enhanced
same,"grain yield per plot, result in words",Corn [10],enhanced
same,"capsicum yield, result in words",Capsicum,"increase in yield, even though there is no statistically significant difference"
same,"root length, result in words",[11],increases the length of roots
"CCCCNP(N)(N)=S [NBPT, N-(n-butyl) thiophosphoric triamide]",time within which decayed,[12],≤ 24 h
